The values below come from the supplement of paper PMC10883282.

± gives the standard deviation of the averaged measurements.

This assay has as its system SW982. Description: relative viability vs DMSO control (72 h) (fraction); higher = more viable cells. In outline:
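Sarcoma cell lines were seeded in 384-well plates at densities chosen for 80–90% confluence, then 24 h later given 2.5 µl of serially diluted compound drawn from source plates spanning 10 mM to 0.0002 mM. They were held 72 h at 37 °C, 5% CO2, with 0.1% DMSO vehicle and a 5 µM positive control included. Relative viability was read with ATPLite as percent growth and averaged over up to triplicate wells. Rescaling placed full at 1 and none at 0.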

For `C[C@]1(O)C[C@@H](c2nc(-c3ccc4ccc(-c5ccccc5)nc4c3)c3c(N)nccn32)C1` [Linsitinib], the relative viability (0.00017 µM) came to 1.01 ± 0.028; the relative viability (0.00051 µM) is 1.04 ± 0.026; the relative viability (0.00152 µM) worked out at 1.03 ± 0.028; the relative viability (0.00457 µM) worked out at 1.05 ± 0.031; the relative viability (0.01372 µM) was determined as 1.05 ± 0.028; the relative viability (0.04115 µM) is 1.02 ± 0.041. Further, the relative viability is, setting by setting: (0.1235 µM) 0.918 ± 0.041; (0.3704 µM) 0.875 ± 0.035; (1.111 µM) 0.824 ± 0.045; (3.333 µM) 0.79 ± 0.035; (10 µM) 0.583 ± 0.021.
Consider `C=CC(=O)N1CCC([C@@H]2CCNc3c(C(N)=O)c(-c4ccc(Oc5ccccc5)cc4)nn32)CC1` [Zanubrutinib], for which the relative viability was determined as 0.96 ± 0.026 (0.00017 µM); 0.968 ± 0.017 (0.00051 µM); 0.944 ± 0.03 (0.00152 µM); 0.958 ± 0.013 (0.00457 µM); 0.949 ± 0.027 (0.01372 µM); 0.96 ± 0.017 (0.04115 µM). In addition, the relative viability is, setting by setting: (0.1235 µM) 0.909 ± 0.019; (0.3704 µM) 0.893 ± 0.052; (1.111 µM) 0.827 ± 0.025; (3.333 µM) 0.771 ± 0.04; (10 µM) 0.731 ± 0.045.
Regarding `Cn1cc(-c2cc3c(N4CCN(c5ncc([C@@](C)(N)c6ccc(F)cc6)cn5)CC4)ncnn3c2)cn1` [Avapritinib], the relative viability is 0.99 ± 0.026 (0.00017 µM); 0.956 ± 0.05 (0.00051 µM); 0.957 ± 0.093 (0.00152 µM); 0.93 ± 0.07 (0.00457 µM); 0.964 ± 0.061 (0.01372 µM); 0.962 ± 0.081 (0.04115 µM). Moreover, the relative viability is 0.902 ± 0.033 (0.1235 µM); 0.928 ± 0.025 (0.3704 µM); 0.905 ± 0.044 (1.111 µM); 0.894 ± 0.033 (3.333 µM); 0.8071 ± 0.0062 (10 µM).
For the molecule `CC(=O)Nc1cccc(-n2c(=O)n(C3CC3)c(=O)c3c(Nc4ccc(I)cc4F)n(C)c(=O)c(C)c32)c1` [Trametinib], the relative viability (0.00017 µM) stood at 0.993 ± 0.045; the relative viability (0.00051 µM) was determined as 0.988 ± 0.044; the relative viability (0.00152 µM) was found to be 0.981 ± 0.028; the relative viability (0.00457 µM) stood at 0.938 ± 0.051; the relative viability (0.01372 µM) is 0.893 ± 0.095; the relative viability (0.04115 µM) was 0.866 ± 0.07. The same molecule gave a relative viability (0.1235 µM) of 0.847 ± 0.084; a relative viability (0.3704 µM) of 0.848 ± 0.038; a relative viability (1.111 µM) of 0.858 ± 0.049; a relative viability (3.333 µM) of 0.838 ± 0.049; a relative viability (10 µM) of 0.799 ± 0.027.
